One series deals with prostate stromal cells. To be noted: in vitro; cited from earlier work.
Series [1] relates to adrenergic synapses of the sympathetic nervous system. Put plainly: SPECT imaging of I-123-radiolabeled mIBG distribution in the heart, combined with x-ray CT. In kind it is in vivo. To be noted: human patient, I-123-mIBG, D-SPECT plus CT. Here is the method:
A human patient was administered I-123-radiolabeled mIBG, a radioactive tracer for adrenergic synapses of the sympathetic nervous system. An image based on mIBG distribution was obtained by SPECT using a D-SPECT® Cardiac Imaging System (Spectrum Dynamics, Israel). The anatomy of the heart was determined by performing x-ray CT imaging and segmenting the obtained x-ray CT images. The x-ray CT data was then combined with the SPECT data so as to construct an image showing mIBG distribution in the heart.

Regarding `NC[C@H](O)c1ccc(O)c(O)c1` [Norepinephrine, norepinephrine], the “mitogenic effect on prostate stromal cells” value with prostate stromal cells was “direct mitogenic effect”.
Turning to `N=C(N)NCc1cccc(I)c1` [mIBG, m-iodobenzylguanidine], the “mIBG activity in left atrium (site of maximal activity level)” value in series [1] (left atrium, FIGS. 6A-6D) was “maximal activity level in the left inferior pulmonary vein”. The “mIBG activity in right ventricle (site of maximal activity level)” value in series [1] (right ventricle, FIGS. 8A-8B) is given as “maximal activity level in the interventricular septum”.

The values are drawn from patent US20150366523A1, “NEURONAL IMAGING AND TREATMENT” (priority 2013, published 2015).
